Assays:
Type in all cases: in vivo
Plutella xylostella = assay: whole plant or invertebrate; conditions: foliar, cabbage leaf dip, second instar larvae, dead and moribund combined, 72 h after release
Protocol: (§1) Test Solutions were Prepared According to the Procedure Described Herein Below (500 PPM):
(§2) • 1. Eppendorf Vortex mixer (ThermoMixer C) and 1.5 mL Eppendorf tubes • 2. Zirconia (Zirconium-Yttrium) beads having diameter of 0.8 to 1.0 mm • 3. Microscope • 4. Beaker 100 mL • 5. Micro-pipette Reagents: • 1. Surfactant Solution • 2. De-mineralized (DM) Water • 1. Weigh 10 mg of the compound of the present invention to be tested in an Eppendorf Tube. • 2. Add 200 mg of the Surfactant Solution into the tube. • 3. Add 600 mg of Zirconia beads into the above mixture. • 4. Fix the tube in Eppendorf Vortex mixer and start vortexing at 2000 rpm. • 5. Mix on Vortex mixer for 30 minutes. After 30 minutes, observe the sample over a microscope at 400× resolution. • 6. If the Maximum particle size is more than 5 μm or average particle size is more than 2 μm or the particle size distribution is uneven, continue vortexing for another 30 minutes and again check the particle size using the microscope. Continue till the average particle size is below 2 microns. • 7. When the required particle size is achieved, add 1.0 mL DM water into the tube, close the cap, shake the tube thoroughly and transfer the contents, along with the beads, into a beaker. • 8. To rinse the tube, add another 1.0 mL of DM water into the tube, close the cap, shake well and transfer this into the same beaker. • 9. Repeat Step no. 8 one more time so that the tube is rinsed well and the compound of the present invention to be tested is transferred to the beaker. • 10. Add 16.8 mL of DM water into the beaker and stir well. • 11. The homogeneous dispersion can then be decanted into a glass vial, immediately, to separate the Zirconia beads. • 12. Immediately use this sample for biological testing. • 13. Further dilutions can be prepared by taking appropriate quantity of the aliquot of Step 10, immediately after stirring, and diluting as per requirement. The sample solution must be well mixed just before biological testing.
Leaf dip method was used for screening, wherein the required quantity of the compounds were weighed and dissolved in the test solution into the tube and vortex at 2000 rpm with Zirconia beads for 90 min for proper mixing, then mixed with 0.01% Triton-X solution to get the desired test concentration. Cabbage leaves were dipped in the solution for 10 seconds, shade dried for 20 min and then transferred to bioassay trays. Single second instar larva was released into each cell and the tray was covered with lid. The bio-assay trays were kept under laboratory conditions at a temperature of 25° C. and relative humidity of 70%. Observations on dead, moribund and live larvae were recorded at 72 h after the release. Percent mortality was calculated by combining dead and moribund larvae. The following compound num.

Spodoptera litura = Spodoptera litura diet incorporation method; conditions: third instar larvae, dead and moribund combined, 96 h after release
Protocol: as §1, §2
(§3) Diet incorporation method was used, in which semi-synthetic diet was incorporated into the test solution when the temperature is approximately 50° C. in the bioassay containers and stirred thoroughly for properly mixing and then was allowed to cool for 30 min. The solidified diet was cut into equal pieces, and then each piece was transferred in one cell in Bio-assay trays. A single third instar starved larva was released into each of these cells of bioassay trays and the tray was covered with the lid. The bio-assay trays were kept under laboratory conditions at a temperature of 25° C. and Relative Humidity of 70%. Observations on dead, moribund and live larvae were recorded at 96 h after the release of larvae. Percent mortality was calculated by combining dead and moribund larvae. The following compound numbers

Helicoverpa armigera = Helicoverpa armigera diet incorporation method; conditions: third instar larvae, dead and moribund combined, 96 h after release
Protocol: as §1, §2
as §3, with “which and” for “which”

SMILES | mortality at 300 ppm (Plutella xylostella) [%] | mortality at 300 ppm (Spodoptera litura) [%] | mortality at 300 ppm (Helicoverpa armigera) [%]
Cc1cc2ccnn2c(C(=O)NCC2CCCO2)c1NC(=O)c1cc(Br)nn1-c1ncccc1Cl (racemic) [Compound 189, rac-(R)-6-(3-bromo-1-(3-chloropyridin-2-yl)-1H-pyrazole-5-carboxamido)-5-methyl-N-((tetrahydrofuran-2-yl)methyl)pyrazolo[1,5-a]pyridine-7-carboxamide] | > 70 | > 70 | 
COCCNC(=O)c1c(NC(=O)c2cc(OCC(F)(F)F)nn2-c2ncccc2Cl)c(C)cc2ccnn12 [Compound 17, 6-(1-(3-chloropyridin-2-yl)-3-(2,2,2-trifluoroethoxy)-1H-pyrazole-5-carboxamido)-N-(2-methoxyethyl)-5-methylpyrazolo[1,5-a]pyridine-7-carboxamide] | > 70 | > 70 | 
CCNC(=O)c1c(NC(=O)c2cc(N3CC(F)(F)C3)nn2-c2ncccc2Cl)c(C)cc2ccnn12 [Compound 83, 6-(1-(3-chloropyridin-2-yl)-3-(3,3-difluoroazetidin-1-yl)-1H-pyrazole-5-carboxamido)-N-ethyl-5-methylpyrazolo[1,5-a]pyridine-7-carboxamide] |  | > 70 | 
C=CCNC(=O)c1c(NC(=O)c2cc(N3CC(F)(F)C3)nn2-c2ncccc2Cl)c(C)cc2ccnn12 [Compound 86, N-allyl-6-(1-(3-chloropyridin-2-yl)-3-(3,3-difluoroazetidin-1-yl)-1H-pyrazole-5-carboxamido)-5-methylpyrazolo[1,5-a]pyridine-7-carboxamide] |  | > 70 | 
CCONC(=O)c1c(NC(=O)c2cc(OCC(F)(F)F)nn2-c2ncccc2Cl)c(C)cc2ccnn12 [Compound 115, 6-(1-(3-chloropyridin-2-yl)-3-(2,2,2-trifluoroethoxy)-1H-pyrazole-5-carboxamido)-N-ethoxy-5-methylpyrazolo[1,5-a]pyridine-7-carboxamide] | > 70 |  | > 70
Cc1cc2ccnn2c(C(=O)NOC(C)C)c1NC(=O)c1cc(OCC(F)(F)F)nn1-c1ncccc1Cl [Compound 116, 6-(1-(3-chloropyridin-2-yl)-3-(2,2,2-trifluoroethoxy)-1H-pyrazole-5-carboxamido)-N-isopropoxy-5-methylpyrazolo[1,5-a]pyridine-7-carboxamide] | > 70 |  | > 70
Cc1cc2ccnn2c(C(=O)NCC#N)c1NC(=O)c1cc(C(F)(F)F)nn1-c1ncccc1Cl [Compound 117, 6-(1-(3-chloropyridin-2-yl)-3-(trifluoromethyl)-1H-pyrazole-5-carboxamido)-N-(cyanomethyl)-5-methylpyrazolo[1,5-a]pyridine-7-carboxamide] | > 70 |  | > 70
CCNC(=O)c1c(NC(=O)c2cc(C(F)(F)F)nn2-c2ncccc2Cl)c(Br)cc2ccnn12 [Compound 127, 5-bromo-6-(1-(3-chloropyridin-2-yl)-3-(trifluoromethyl)-1H-pyrazole-5-carboxamido)-N-ethylpyrazolo[1,5-a]pyridine-7-carboxamide] | > 70 |  | > 70
COc1cc(C(=O)Nc2c(Br)cc3ccnn3c2C(=O)NC(C)C)n(-c2ncccc2Cl)n1 [Compound 130, 5-bromo-6-(1-(3-chloropyridin-2-yl)-3-methoxy-1H-pyrazole-5-carboxamido)-N-isopropylpyrazolo[1,5-a]pyridine-7-carboxamide] | > 70 |  | > 70
COc1cc(C(=O)Nc2c(Cl)cc3ccnn3c2C(=O)NCC2CC2)n(-c2ncccc2Cl)n1 [Compound 131, 5-chloro-6-(1-(3-chloropyridin-2-yl)-3-methoxy-1H-pyrazole-5-carboxamido)-N-(cyclopropylmethyl)pyrazolo[1,5-a]pyridine-7-carboxamide] | > 70 |  | > 70
Cc1cc2ccnn2c(C(=O)NC2CC2)c1NC(=O)c1cc(OC2CSC2)nn1-c1ncccc1Cl [Compound 145, 6-(1-(3-chloropyridin-2-yl)-3-(thietan-3-yloxy)-1H-pyrazole-5-carboxamido)-N-cyclopropyl-5-methylpyrazolo[1,5-a]pyridine-7-carboxamide] |  | > 70 | 
Cc1cc2ccnn2c(C(=O)NCC2CC2)c1NC(=O)c1cc(Cn2nnc(C(F)(F)F)n2)nn1-c1ncccc1Cl [Compound 171, 6-(1-(3-chloropyridin-2-yl)-3-((5-(trifluoromethyl)-2H-tetrazol-2-yl)methyl)-1H-pyrazole-5-carboxamido)-N-(cyclopropylmethyl)-5-methylpyrazolo[1,5-a]pyridine-7-carboxamide] | > 70 |  | > 70
Cc1cc2ccnn2c(C(=O)NC2(C)COC2)c1NC(=O)c1cc(Br)nn1-c1ncccc1Cl [Compound 173, 6-(3-bromo-1-(3-chloropyridin-2-yl)-1H-pyrazole-5-carboxamido)-5-methyl-N-(3-methyloxetan-3-yl)pyrazolo[1,5-a]pyridine-7-carboxamide] | > 70 |  | > 70
CCC(C)CNC(=O)c1c(NC(=O)c2cc(OC)nn2-c2ncccc2Cl)c(C)cc2ccnn12 (stereo not shown) [Compound 199, 6-(1-(3-chloropyridin-2-yl)-3-methoxy-1H-pyrazole-5-carboxamido)-5-methyl-N-(2-methylbutyl)pyrazolo[1,5-a]pyridine-7-carboxamide] | > 70 |  | > 70
Cc1cc2ccnn2c(C(=O)NCCC(C)C)c1NC(=O)c1cc(Br)nn1-c1ncccc1Cl [Compound 206, 6-(3-bromo-1-(3-chloropyridin-2-yl)-1H-pyrazole-5-carboxamido)-N-isopentyl-5-methylpyrazolo[1,5-a]pyridine-7-carboxamide] |  | > 70 | 
Cc1cc2ccnn2c(C(=O)NC2C[S+]([O-])C2)c1NC(=O)c1cc(Br)nn1-c1ncccc1Cl (stereo not shown) [Compound 209, 6-(3-bromo-1-(3-chloropyridin-2-yl)-1H-pyrazole-5-carboxamido)-5-methyl-N-(1-oxidothietan-3-yl)pyrazolo[1,5-a]pyridine-7-carboxamide] | > 70 |  | > 70
COc1cc(C(=O)Nc2c(C)cc3ccnn3c2C(=O)NC(C)C(F)(F)F)n(-c2ncccc2Cl)n1 (stereo not shown) [Compound 217, 6-(1-(3-chloropyridin-2-yl)-3-methoxy-1H-pyrazole-5-carboxamido)-5-methyl-N-(1,1,1-trifluoropropan-2-yl)pyrazolo[1,5-a]pyridine-7-carboxamide] |  | > 70 | 
COc1cc(C(=O)Nc2c(C)cc3ccnn3c2C(=O)NC2(C)CC2)n(-c2ncccc2Cl)n1 [Compound 219, 6-(1-(3-chloropyridin-2-yl)-3-methoxy-1H-pyrazole-5-carboxamido)-5-methyl-N-(1-methylcyclopropyl)pyrazolo[1,5-a]pyridine-7-carboxamide] |  | > 70 | 
Cc1cc2ccnn2c(C(=O)NC(C)C(F)(F)F)c1NC(=O)c1cc(C(F)(F)F)nn1-c1ncccc1Cl (stereo not shown) [Compound 220, 6-(1-(3-chloropyridin-2-yl)-3-(trifluoromethyl)-1H-pyrazole-5-carboxamido)-5-methyl-N-(1,1,1-trifluoropropan-2-yl)pyrazolo[1,5-a]pyridine-7-carboxamide] |  | > 70 | 

— US12024510B2, “Pyrazolopyridine-diamides, their use as insecticide and processes for preparing the same” (PI INDUSTRIES LTD., priority 2017, dated 2024)
